{"source": "patent US20020035058A1", "about": "“Isopentenyl pyrophosphate isomerase (IPI) and/or prenyl transferase inhibitors” (The University of Sheffield, priority 1996, published 2002)", "key": {"[1]": {"test_system": "Ras", "test": "Immunoprecipitation of Ras: farnesylation of Ras", "format": "cell-based", "details": "41 h"}, "[2]": {"test_system": "protein prenylation in J774 cells", "test": "Protein prenylation: incorporation of mevalonate into proteins", "format": "cell-based", "details": "for incorporation of radiolabel (mevalonate) into protein bands: 100 μM, 24 h labelling period"}, "[3]": {"target": "IPI (IPP isomerase) (Homo sapiens, UniProt Q13907)", "sequence (Q13907 whole entry)": "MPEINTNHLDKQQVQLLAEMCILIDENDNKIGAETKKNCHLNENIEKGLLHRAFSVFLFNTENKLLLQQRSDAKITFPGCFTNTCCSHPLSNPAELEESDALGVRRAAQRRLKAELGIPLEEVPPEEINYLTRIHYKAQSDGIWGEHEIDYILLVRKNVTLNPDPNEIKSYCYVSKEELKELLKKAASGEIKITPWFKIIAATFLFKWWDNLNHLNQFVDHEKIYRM", "test": "Inhibition of IPI (IPP isomerase) by bisphosphonates", "format": "biochemical", "details": "concentration required to inhibit enzyme activity by 50%"}, "[4]": {"target": "T1, squalene synthase (Rattus norvegicus, UniProt Q02769)", "T1 sequence (Q02769 1-416)": "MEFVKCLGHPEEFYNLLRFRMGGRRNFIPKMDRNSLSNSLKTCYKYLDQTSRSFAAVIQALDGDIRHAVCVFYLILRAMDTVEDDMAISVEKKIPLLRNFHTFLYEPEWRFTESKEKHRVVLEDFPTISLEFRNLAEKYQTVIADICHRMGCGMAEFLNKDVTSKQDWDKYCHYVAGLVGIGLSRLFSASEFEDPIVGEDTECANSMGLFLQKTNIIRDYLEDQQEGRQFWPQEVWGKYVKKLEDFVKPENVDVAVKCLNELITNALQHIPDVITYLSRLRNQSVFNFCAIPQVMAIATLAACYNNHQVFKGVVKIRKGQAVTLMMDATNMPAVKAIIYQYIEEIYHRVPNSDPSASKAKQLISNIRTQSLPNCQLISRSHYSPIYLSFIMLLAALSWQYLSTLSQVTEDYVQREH", "details": "cited from earlier work"}, "[5]": {"test_system": "J774 macrophages", "test": "Loss of total cell viability, MTT reduction", "format": "cell-based", "details": "for IC50: read-out: concentration causing 50% loss of total cell viability"}, "[6]": {"test_system": "Rab6", "test": "Immunoprecipitation of Rab6: geranylgeranylation of Rab6", "format": "cell-based", "details": "41 h"}, "[7]": {"test_system": "J774 macrophages", "test": "Assessment of apoptosis in J774 macrophages (nuclear morphology, DNA fragmentation)", "format": "cell-based", "details": "10-100 μM"}}, "note": "Where two headings read alike, the source gives them in different places."}
{"compound": "NCCCC(O)(P(=O)(O)O)P(=O)(O)O", "note": "[ALENDRONATE, alendronate]", "values": [{"measurement": "farnesylated form of Ras after immunoprecipitation", "setting": "[1]; 100 μM", "value": "barely detectable"}, {"measurement": "incorporation of radiolabel (mevalonate) into protein bands", "setting": "[2]", "value": "markedly reduced"}, {"measurement": "IC50", "setting": "[3]", "value": 0.075, "unit": "µM"}, {"measurement": "inhibition of squalene synthase", "setting": "[4]", "value": "not"}, {"measurement": "apoptosis and loss of cell viability with FPP or GGPP co-incubation", "setting": "[5]; 100 μM alendronate + 200 μM FPP or GGPP", "value": "could be partially inhibited"}, {"measurement": "IC50", "setting": "[5]; Mus musculus, J774 cells, after 48 h", "value": "~30", "unit": "µM"}, {"measurement": "geranylgeranylated form of Rab6 after immunoprecipitation", "setting": "[6]; 10 μM", "value": "barely detectable"}]}
{"compound": "CCCCCN(C)CCC(O)(P(=O)(O)O)P(=O)(O)O", "note": "[IBANDRONATE, ibandronate]", "values": [{"measurement": "incorporation of radiolabel (mevalonate) into protein bands", "setting": "[2]", "value": "markedly reduced"}, {"measurement": "IC50", "setting": "[3]", "value": 0.035, "unit": "µM"}, {"measurement": "inhibition of squalene synthase", "setting": "[4]", "value": "potent inhibitors"}]}
{"compound": "O=P(O)(O)C(O)(Cc1cccnc1)P(=O)(O)O", "note": "[RISEDRONATE, risedronate]", "values": [{"measurement": "IC50", "setting": "[3]", "value": 0.022, "unit": "µM"}, {"measurement": "IC50", "setting": "[5]; Mus musculus, J774, 48 h", "value": "~3", "unit": "µM"}]}
{"compound": "O=P(O)(O)C(NC1CCCCCC1)P(=O)(O)O", "note": "[YM175]", "values": [{"measurement": "incorporation of radiolabel (mevalonate) into protein bands", "setting": "[2]", "value": "inhibited even more effectively"}, {"measurement": "IC50", "setting": "[3]", "value": 0.035, "unit": "µM"}, {"measurement": "inhibition of squalene synthase", "setting": "[4]", "value": "potent inhibitors"}]}
{"compound": "O=P(O)(O)C(Cl)(Cl)P(=O)(O)O", "note": "[clodronate]", "values": [{"measurement": "protein prenylation and synthesis of radiolabelled dye-front compounds", "setting": "[2]; 750 μM", "value": "did not affect"}, {"measurement": "reduction in viability of J774 cells", "setting": "[5]; 750 μM", "value": "substantial reduction"}]}
{"compound": "CC[C@H](C)C(=O)O[C@H]1CCC=C2C=C[C@H](C)[C@H](CC[C@@H]3C[C@@H](O)CC(=O)O3)[C@H]21", "note": "[mevastatin]", "values": [{"measurement": "farnesylated form of Ras after immunoprecipitation", "setting": "[1]; 15 μM", "value": "Identical results"}, {"measurement": "proportion of J774 cells with features typical of apoptosis", "setting": "[7]", "value": "dose-dependent increase"}, {"measurement": "loss of cell viability with cycloheximide co-incubation", "setting": "[5]; 15 μM mevastatin + 0.5 μM cycloheximide, 48 h", "value": "could be prevented"}, {"measurement": "IC50", "setting": "[5]; J774 cells, after 48 h", "value": "~10", "unit": "µM"}, {"measurement": "loss of cell viability and apoptosis with FPP, GGPP or mevalonic acid lactone co-incubation", "setting": "[5]; mevastatin + 200 μM FPP, GGPP or mevalonic acid lactone", "value": "prevented (at least partially)"}, {"measurement": "geranylgeranylated form of Rab6 after immunoprecipitation", "setting": "[6]; 11 μM", "value": "barely detectable"}]}
